In DBAASP:
In brackets after ≈: the same amount, converted by molar mass.

What was measured:
Test in all cases: ≥ marks a high value that may be exact or a test limit, other limits are often not marked, values filed in µg/mL are converted to µM
Staphylococcus aureus = test system: Staphylococcus aureus
Streptococcus sanguinis = test system: Streptococcus sanguinis
[1] = test system: Enterococcus faecalis ATCC 4028
[2] = test system: Pseudomonas aeruginosa ATCC 27853
[3] = test system: Staphylococcus aureus ATCC 29213
[4] = test system: Enterobacter cloacae ATCC 13047
Candida krusei ATCC 6258 = test system: Candida krusei ATCC 6258
[5] = test system: Escherichia coli ATCC 25922
[6] = test system: Candida albicans ATCC 90028
[7] = test system: Candida glabrata ATCC 90030
[8] = test system: Staphylococcus epidermidis ATCC 12228
[9] = test system: Klebsiella pneumoniae NCTC 13368
[10] = test system: Escherichia coli NCTC 12923
[11] = test system: Acinetobacter baumannii ATCC 17978
[12] = test system: Pseudomonas aeruginosa PAO1
[13] = test system: Staphylococcus aureus USA 300
[14] = test system: Staphylococcus aureus ATCC 9144
[15] = test system: Enterococcus faecalis ATCC BAA-2365
[16] = test system: Enterococcus faecalis ATCC 29212
[17] = test system: Staphylococcus aureus ATCC 43300
[18] = test system: Staphylococcus aureus ATCC BAA-41
[19] = test system: Enterococcus faecium ATCC BAA-2316
[20] = test system: Enterococcus faecalis ATCC 19433
[21] = test system: Staphylococcus aureus ATCC 33591
[22] = test system: Salmonella enterica subsp. enterica serovar Typhimurium ATCC 14028
Escherichia coli UTI89 = test system: Escherichia coli UTI89
[23] = test system: Staphylococcus epidermidis
[24] = test system: Escherichia coli K12 MG1655
[25] = test system: Staphylococcus aureus ATCC 19636
[26] = test system: Staphylococcus aureus ATCC 25923
[27] = test system: Pseudomonas aeruginosa ATCC 9027
[28] = test system: Candida albicans ATCC 90029
[29] = test system: Salmonella enterica subsp. enterica serovar Pullorum
[30] = test system: Salmonella enterica subsp. enterica serovar Pullorum CVCC 3533
Escherichia coli = test system: Escherichia coli
[31] = test system: Candida albicans ATCC 14053
[32] = test system: Escherichia coli ATCC 11775
[33] = test system: Staphylococcus aureus ATCC 12600
[34] = test system: Micrococcus luteus ATCC 49732
[35] = test system: Candida krusei CGMCC 2.1857
Escherichia coli 1005 = test system: Escherichia coli 1005
[36] = test system: Candida tropicalis CGMCC 2.1975
Candida albicans = test system: Candida albicans
[37] = test system: Candida parapsilosis CGMCC 2.3989
[38] = test system: Salmonella enterica subsp. enterica serovar Pullorum ATCC 7913

What does the source list for `NC(=O)[C@H](Cc1ccccc1)NC(=O)[C@H](Cc1ccccc1)NC(=O)[C@H](Cc1ccccc1)NC(=O)[C@H](Cc1ccccc1)NC(=O)[C@H](Cc1ccccc1)NC(=O)[C@@H](N)Cc1ccccc1` [FFFFFF]?
MIC (Staphylococcus aureus): 14.3 µM (≈ 12.8 µg/mL); MIC (Streptococcus sanguinis): 8.3 µM (≈ 7.48 µg/mL)

How did the MIC [1] turn out when `CC[C@H](C)[C@H](NC(=O)[C@H](CC(C)C)NC(=O)[C@H](CCCCN)NC(=O)[C@H](CCCCN)NC(=O)[C@@H](NC(=O)[C@H](CC(C)C)NC(=O)[C@H](CO)NC(=O)[C@@H]1CCCN1C(=O)[C@@H](NC(=O)[C@H](CC(C)C)NC(=O)[C@H](CO)NC(=O)[C@H](Cc1ccccc1)NC(=O)[C@@H](N)Cc1ccccc1)[C@@H](C)CC)C(C)C)C(=O)N[C@@H](CCCCN)C(=O)N[C@@H](C)C(=O)N[C@@H](Cc1ccccc1)C(=O)N[C@@H](CCCCN)C(N)=O` [FFSLIPSLVKKLIKAFK] was run?
The MIC was 4.7 µM (≈ 9.3 µg/mL).

What about the MIC [2] of the same compound?
Its MIC is 4.7 µM (≈ 9.3 µg/mL).

What about the MIC [3] of the same compound?
The MIC was 1.2 µM (≈ 2.37 µg/mL).

What about the MIC [4] of the same compound?
The MIC was 18.8 µM (≈ 37.2 µg/mL).

What about the MIC (Candida krusei ATCC 6258) of the same compound?
The MIC was 9.4 µM (≈ 18.6 µg/mL).

What about the MIC [5] of the same compound?
The MIC was 2.3 µM (≈ 4.55 µg/mL).

What about the MIC [6] of the same compound?
Its MIC is 9.4 µM (≈ 18.6 µg/mL).

And the MIC [7]?
The MIC was 9.4 µM (≈ 18.6 µg/mL).

And the MIC [8]?
The MIC was 2.3 µM (≈ 4.55 µg/mL).

How did the MIC [9] turn out when `CC[C@H](C)[C@H](NC(=O)[C@H](C)NC(=O)[C@H](CCCCN)NC(=O)[C@H](CCCN=C(N)N)NC(=O)[C@@H](NC(=O)[C@H](CC(C)C)NC(=O)[C@H](CO)NC(=O)[C@H](Cc1ccccc1)NC(=O)[C@H](CC(C)C)NC(=O)[C@@H](N)Cc1ccccc1)[C@@H](C)CC)C(=O)NCC(=O)NCC(=O)N[C@@H](CC(C)C)C(=O)N[C@H](C(=O)N[C@@H](CO)C(=O)N[C@@H](C)C(=O)N[C@@H](Cc1ccccc1)C(=O)N[C@@H](CCCCN)C(=O)O)[C@@H](C)CC` [FLFSLIRKAIGGLISAFK] was run?
The MIC was at least 64.6 µM.

And the MIC [10]?
The MIC was at least 64.6 µM.

What about the MIC [11] of the same compound?
Its MIC is 4.04 µM (≈ 8 µg/mL).

And the MIC [3]?
The MIC was 5 µM (≈ 9.91 µg/mL).

And the MIC [12]?
The MIC was over 64.6 µM.

And the MIC [13]?
Its MIC is 16.1 µM (≈ 32 µg/mL).

What about the MIC [14] of the same compound?
The MIC was 8.07 µM (≈ 16 µg/mL).

What about the MIC [15] of the same compound?
The MIC was 5 µM (≈ 9.91 µg/mL).

What about the MIC [16] of the same compound?
The MIC was 10 µM (≈ 19.8 µg/mL).

And the MIC [17]?
Its MIC is 5 µM (≈ 9.91 µg/mL).

What about the MIC [18] of the same compound?
The MIC was 5 µM (≈ 9.91 µg/mL).

What about the MIC [19] of the same compound?
The MIC was 15 µM (≈ 29.7 µg/mL).

What about the MIC [20] of the same compound?
Its MIC is 12.5 µM (≈ 24.8 µg/mL).

And the MIC [8]?
Its MIC is 2.5 µM (≈ 4.95 µg/mL).

And the MIC [21]?
The MIC was 5 µM (≈ 9.91 µg/mL).

For `CC[C@H](C)[C@H](NC(=O)[C@H](CCCN=C(N)N)NC(=O)[C@H](CCC(N)=O)NC(=O)[C@H](Cc1c[nH]c2ccccc12)NC(=O)[C@@H](NC(=O)[C@H](CCCCN)NC(=O)[C@@H](N)CCCCN)[C@@H](C)CC)C(=O)N[C@@H](CCCCN)C(=O)N[C@@H](CC(N)=O)C(=O)N[C@@H](Cc1ccccc1)C(=O)N[C@@H](Cc1ccccc1)C(=O)N[C@@H](CCC(N)=O)C(=O)N[C@@H](CCCCN)C(=O)N[C@@H](CC(C)C)C(=O)O` [KKIWQRIKNFFQKL], which MIC [22] is on record?
The MIC was 29 µM (≈ 54.4 µg/mL).

What about the MIC (Escherichia coli UTI89) of the same compound?
The MIC was 6.25 µM (≈ 11.7 µg/mL).

And the MIC [23]?
The MIC was at least 50 µM.

What about the MIC [24] of the same compound?
The MIC was 7 µM (≈ 13.1 µg/mL).

What does the source list for `CC(C)C[C@H](NC(=O)[C@H](C)NC(=O)[C@H](CCCCN)NC(=O)[C@H](CC(C)C)NC(=O)[C@H](Cc1c[nH]c2ccccc12)NC(=O)[C@H](CCCCN)NC(=O)[C@H](CCCN=C(N)N)NC(=O)[C@H](Cc1c[nH]c2ccccc12)NC(=O)[C@H](CCCCN)NC(=O)[C@@H](N)CCCCN)C(=O)N[C@@H](C)C(=O)N[C@@H](CCCCN)C(=O)N[C@@H](CCCCN)C(=O)O` [KKWRKWLKALAKK]?
MIC [25]: 3.74 µM (≈ 6.3 µg/mL); MIC [2]: 14.8 µM (≈ 25 µg/mL); MIC [3]: 29.7 µM (≈ 50 µg/mL); MIC [5]: 7.42 µM (≈ 12.5 µg/mL); MIC [26]: > 29.7 µM; MIC [27]: 14.8 µM (≈ 25 µg/mL)

`CC(C)C[C@H](NC(=O)[C@H](CCCCN)NC(=O)[C@H](Cc1cnc[nH]1)NC(=O)[C@H](CCCCN)NC(=O)[C@H](CC(C)C)NC(=O)[C@H](CC(C)C)NC(=O)[C@@H](N)CCCCN)C(=O)N[C@@H](CC(C)C)C(=O)N[C@H](C(=O)N[C@H](C(=O)N[C@@H](CC(C)C)C(=O)N[C@@H](C)C(=O)O)[C@@H](C)O)C(C)C` [KLLKHKLLVTLA] was tested. Which MIC [28] did it give?
Its MIC is at least 36.3 µM.

What about the MIC [29] of the same compound?
Its MIC is 4.54 µM (≈ 6.25 µg/mL).

What about the MIC [3] of the same compound?
The MIC was 18.2 µM (≈ 25 µg/mL).

What about the MIC (Staphylococcus aureus) of the same compound?
Its MIC is 18.2 µM (≈ 25 µg/mL).

And the MIC [5]?
Its MIC is 9.08 µM (≈ 12.5 µg/mL).

And the MIC [30]?
The MIC was 4.54 µM (≈ 6.25 µg/mL).

And the MIC (Escherichia coli)?
Its MIC is 18.2 µM (≈ 25 µg/mL).

What does the source list for `C[C@H](NC(=O)[C@H](C)NC(=O)[C@@H](NC(=O)CNC(=O)[C@@H]1CCCN1)[C@@H](C)O)C(=O)N[C@@H](Cc1ccccc1)C(=O)N[C@@H](CCCCN)C(=O)O` [PGTAAFK]?
MIC [31]: ≥ 36 µM; MIC [32]: ≥ 128 µM; MIC [33]: ≥ 967 µM; MIC [34]: ≥ 36 µM

What does the source list for `CC[C@H](C)[C@H](NC(=O)[C@H](CCCN=C(N)N)NC(=O)[C@@H](NC(=O)[C@@H](NC(=O)[C@@H](NC(=O)[C@H](CCCN=C(N)N)NC(=O)[C@@H](NC(=O)[C@H](CCCN=C(N)N)NC(=O)[C@@H](N)CCCN=C(N)N)[C@@H](C)CC)[C@@H](C)CC)[C@@H](C)CC)[C@@H](C)CC)C(=O)N[C@@H](CCCN=C(N)N)C(=O)N[C@@H](CCCN=C(N)N)C(N)=O` [RRIRIIIRIRR]?
MIC [22]: 4 µM (≈ 6.08 µg/mL); MIC [35]: 2 µM (≈ 3.04 µg/mL); MIC [3]: 4 µM (≈ 6.08 µg/mL); MIC (Escherichia coli 1005): 4 µM (≈ 6.08 µg/mL); MIC [36]: 1 µM (≈ 1.52 µg/mL); MIC (Candida albicans): 1.41 µM (≈ 2.15 µg/mL); MIC [37]: 4 µM (≈ 6.08 µg/mL); MIC [26]: 4 µM (≈ 6.08 µg/mL); MIC [17]: 4 µM (≈ 6.08 µg/mL); MIC [8]: 4 µM (≈ 6.08 µg/mL); MIC [38]: 2 µM (≈ 3.04 µg/mL)
